Source: patent US20240400579A1, “SPIROCYCLIC MODULATORS OF CHOLESTEROL BIOSYNTHESIS AND THEIR USE FOR PROMOTING REMYELINATION” (GENENTECH, INC., priority 2021, published 2024)

Assays:
EpiSC-derived OPCs = assay: In vitro phenotypic screening of OPCs, MBP high-content imaging; assay type: cell-based, mouse; details: Mus musculus, 72 h, percentage of MBP+ oligodendrocytes; 3 days; 0.5 nM to 1000 nM; read-out: mOPC EC50
Outline: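 Mouse EpiSC-derived OPCs seeded without growth factors and exposed 3 days at 37° C. to 8-point doses, 1000 nM to 0.5 nM final. Fixed cells stained for MBP and DAPI; high-content imaging gave percentage MBP+ oligodendrocytes, with EC50 from Hill-equation fit.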

[1] = tested on: zymostenol accumulation in EpiSC-derived OPCs (EBP); assay: GC/MS-based sterol profiling, zymostenol accumulation; assay type: cell-based, mouse; details: Mus musculus, 24 h, 8 doses from 0.15 nM to 333 nM, read-out: mZymo GCMS EC50
Outline: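 EpiSC-derived mouse OPCs plated at 100,000 cells/well in N2B27 without growth factors and treated 24 h. Sterols extracted, silylated with BSTFA and measured by GC/MS (EI, full scan), quantified against cholesterol-d7. Zymostenol normalized to levels after 24 h with 100 nM positive control reference.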

[2] = target: human emopamil binding protein and human 7-dehydrocholesterol reductase co-expressing cell membrane (Homo sapiens (Human), UniProt Q15125); assay: hEBP-DHCR7 radioligand filtration binding assay with [3H]-Compound 118A*; details: radioligand [3H]-Compound 118A*; HEK293 membrane co-expressing hEBP and DHCR7
human emopamil binding protein and human 7-dehydrocholesterol reductase co-expressing cell membrane, sequence (Q15125 whole entry): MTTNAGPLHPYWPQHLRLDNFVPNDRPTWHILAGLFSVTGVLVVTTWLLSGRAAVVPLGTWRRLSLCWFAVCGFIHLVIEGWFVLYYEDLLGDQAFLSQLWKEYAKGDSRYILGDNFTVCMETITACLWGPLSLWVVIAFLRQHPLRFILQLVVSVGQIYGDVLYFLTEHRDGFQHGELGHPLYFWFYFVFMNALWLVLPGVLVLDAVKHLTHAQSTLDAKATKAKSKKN
Outline: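 HEK293 membranes transiently co-expressing hEBP and hDHCR7 (10 μg/well) were incubated with [3H]-Compound 118A* (added at 25 nM) and compounds (8 doses, final 0.06–5000 nM, n=2) for 3 h at 22 °C. Bound radioactivity was read after PEI-treated GF/B filtration. IC50 came from a Hill fit of % inhibition and was converted to Ki.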

SMILES	EC50 (EpiSC-derived OPCs) [nM]	EC50 [1] [nM]	Ki [2] [nM]
COC(Cc1ccc(C(F)(F)F)cc1)CN1CCC2(C1)CS(=O)(=O)C2 (racemic) [Example 143, (S)-6-(2-Methoxy-3-(4-(trifluoromethyl)phenyl)propyl)-2-thia-6-azaspiro[3.4]octane 2,2-dioxide and (R)-6-(2-methoxy-3-(4-(trifluoromethyl)phenyl)propyl)-2-thia-6-azaspiro[3.4]octane 2,2-dioxide]	26	2.8	12.6
C[C@@H](Cc1ccc(C(F)(F)F)nc1)CN1CCC2(C1)CS(=O)(=O)C2 (single isomer, unassigned) [118A*]	8.5	2.4	22.1
C[C@@H](Cc1cnc(C(F)(F)F)nc1)CN1CCC2(CC1)CS(=O)(=O)C2 (single isomer, unassigned) [215A*]	23	13	105
C[C@H](Cc1cnc(C(F)(F)F)nc1)CN1CCC2(CC1)CS(=O)(=O)C2 (single isomer, unassigned) [215B*]	51	17	136
C[C@@H](Cc1ccnc(C(F)(F)F)c1)CN1CCC2(C1)CS(=O)(=O)C2 (single isomer, unassigned) [Compound 126A]	10	3.8	47.4
C[C@H](Cc1ccnc(C(F)(F)F)c1)CN1CCC2(C1)CS(=O)(=O)C2 (single isomer, unassigned) [Compound 126B]	230	14	67.6
C[C@@H](Cc1ccc(C(F)F)cc1)CN1CCC2(C1)CS(=O)(=O)C2 (single isomer, unassigned) [Compound 128A]	370	23	29.6
CC(C)(CN1CC[C@]2(CCS(=O)(=O)C2)C1)Oc1ccc(C(F)(F)F)cc1 (single isomer, unassigned) [Compound 141B]	480	49	58.4
C[C@@H](Cc1cnc(C(F)(F)F)nc1)CN1CCC2(C1)CS(=O)(=O)C2 (single isomer, unassigned) [Compound 145A]	69	8.1	69.1
CC(C)(Cc1ccc(C(F)(F)F)nc1)CN1CC[C@@]2(CCS(=O)(=O)C2)C1 (single isomer, unassigned) [Compound 148B]	73	7.2	28.6
O=S1(=O)CC2(CCN(CCOc3ccc(C(F)(F)F)cc3)C2)C1 [Compound 112, 6-(2-(4-(Trifluoromethyl)phenoxy)ethyl)-2-thia-6-azaspiro[3.4]octane-2,2-dioxide]	33	1.3	13.5
CC(C)(CN1CCC2(C1)CS(=O)(=O)C2)Oc1ccc(C2CCC2)cc1 [Example 129, 6-(2-(4-Cyclobutylphenoxy)-2-methylpropyl)-2-thia-6-azaspiro[3.4]octane-2,2-dioxide]	190	19	11.8
CC(C)(CN1CCC2(C1)CS(=O)(=O)C2)Oc1ccc(C(F)(F)F)nc1 [Example 135, 6-(2-Methyl-2-((6-(trifluoromethyl)pyridin-3-yl)oxy)propyl)-2-thia-6-azaspiro[3.4]octane-2,2-dioxide]	140	32	39.6
CC(C)(CN1CCC2(C1)CS(=O)(=O)C2)Oc1cnc(C(F)(F)F)nc1 [Example 144, 6-(2-Methyl-2-((2-(trifluoromethyl)pyrimidin-5-yl)oxy)propyl)-2-thia-6-azaspiro[3.4]octane-2,2-dioxide]	390	80	96.6

Now from value to molecule:

EC50 (EpiSC-derived OPCs) [nM]	EC50 [1] [nM]	Ki [2] [nM]	SMILES
22	9.5	10.3	CCC(C)(C)c1ccc(CC(C)CN2CCC3(C2)CS(=O)(=O)C3)cc1 (racemic) [Compound 107, 6-(2-Methyl-3-(4-(tert-pentyl)phenyl)propyl)-2-thia-6-azaspiro[3.4]octane 2,2-dioxide]
1.8	1.6	12.5	CC(Cc1ccc(C2CCC2)cc1)CN1CCC2(C1)CS(=O)(=O)C2 (racemic) [Compound 109A, 6-(3-(4-cyclobutylphenyl)-2-methylpropyl)-2-thia-6-azaspiro[3.4]octane 2,2-dioxide]
2.4	0.37	18.3	C[C@@H](Cc1ccc(C(F)(F)F)cc1)CN1CCC2(C1)CS(=O)(=O)C2 (single isomer, unassigned) [114A*]
0.72	0.82	5.85	C[C@H](Cc1ccc(C(F)(F)F)cc1)CN1CCC2(C1)CS(=O)(=O)C2 (single isomer, unassigned) [114B*]
4.9	1.6	25.5	C[C@@H](CN1CCC2(CC1)CS(=O)(=O)C2)Oc1ccc(F)c(F)c1 (single isomer, unassigned) [221A*]
2.1	1.2	13.7	O=S1(=O)CC2(CCN(CC[C@H](F)c3ccc(C(F)(F)F)cc3)C2)C1 (single isomer, unassigned) [Compound 122B]
21	5.5	25.6	CC(C)(CN1CC[C@@]2(CCS(=O)(=O)C2)C1)Oc1ccc(C(F)(F)F)cc1 (single isomer, unassigned) [Compound 141A]
22	11	749	O=S1(=O)CC2(CCN(CCOc3ccc(C(F)(F)F)nc3)CC2)C1 [Compound 230, 7-(2-((6-(Trifluoromethyl)pyridin-3-yl)oxy)ethyl)-2-thia-7-azaspiro[3.5]nonane 2,2-dioxide]
10	2.9	13.2	CC(C)(CN1CCC2(C1)CS(=O)(=O)C2)Oc1cccc(C(F)(F)F)c1 [Example 130, 6-(2-Methyl-2-(3-(trifluoromethyl)phenoxy)propyl)-2-thia-6-azaspiro[3.4]octane-2,2-dioxide]
7.8	1.6	118	CC(C)(CN1CCC2(C1)CS(=O)(=O)C2)Oc1cccc(OC(F)(F)F)c1 [Example 131, 6-(2-Methyl-2-(3-(trifluoromethoxy)phenoxy)propyl)-2-thia-6-azaspiro[3.4]octane 2,2-dioxide]
12	3.6	14.2	CC(C)(CN1CCC2(C1)CS(=O)(=O)C2)Oc1ccc(OC(F)(F)F)cc1 [Example 136, 6-(2-Methyl-2-(4-(trifluoromethoxy)phenoxy)propyl)-2-thia-6-azaspiro[3.4]octane 2,2-dioxide]
2.3	1	5.04	CC(C)(CN1CCC2(CC1)CS(=O)(=O)C2)Oc1ccc(C(F)(F)F)cc1 [Example 138, 7-(2-Methyl-2-(4-(trifluoromethyl)phenoxy)propyl)-2-thia-7-azaspiro[3.5]nonane 2,2-dioxide]
0.46	1.6	9.23	CC(C)(Cc1ccc(C2CCC(F)(F)CC2)c(Cl)c1)CN1CCC2(C1)CS(=O)(=O)C2 [Example 139, 6-(3-(3-Chloro-4-(4,4-difluorocyclohexyl)phenyl)-2,2-dimethylpropyl)-2-thia-6-azaspiro[3.4]octane 2,2-dioxide]
5	2.1	19.9	CC(C)(Cc1ccc(C(F)(F)F)nc1)CN1CCC2(C1)CS(=O)(=O)C2 [Example 140, 6-(2,2-Dimethyl-3-(6-(trifluoromethyl)pyridin-3-yl)propyl)-2-thia-6-azaspiro[3.4]octane-2,2-dioxide]
9.4	12	17.2	O=S1(=O)CC2(CCN(CC3(Cc4ccc(C(F)(F)F)nc4)CC3)C2)C1 [Example 157, 6-((1-((6-(Trifluoromethyl)pyridin-3-yl)methyl)cyclopropyl)methyl)-2-thia-6-azaspiro[3.4]octane 2,2-dioxide]
5.5	3.2	25.7	O=S1(=O)CCC2(CC1)CN(CCOc1ccc(C(F)(F)F)cc1)C2 [Example 201, 2-(2-(4-(Trifluoromethyl)phenoxy)ethyl)-7-thia-2-azaspiro[3.5]nonane 7,7-dioxide]
